Measured values: ChEMBL document CHEMBL1201862, “PubChem BioAssay data set” (2004)
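All cell lines were grown in 96-well plates and treated with compound for 48 hours. GI50 marks 50% less growth.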 Active and inactive are the calls of the source. Cut-off read from the data, not from the text of the source: active = GI50 up to about 1.1 µM and inactive = higher.

Experiments:
Experiment in all cases: inhibition of tumour cell growth, NCI panel, 48 h
[1] = tested on: T47D
[2] = tested on: SNB-75
[3] = tested on: NCI-H522
[4] = tested on: SK-OV-3
[5] = tested on: U-251
[6] = tested on: HT-29
[7] = tested on: A549
[8] = tested on: SN12C
[9] = tested on: RPMI-8226
[10] = tested on: HL-60
[11] = tested on: OVCAR-8
[12] = tested on: SNB-19
[13] = tested on: SK-MEL-28
[14] = tested on: SK-MEL-2
[15] = tested on: TK-10
[16] = tested on: ACHN
[17] = tested on: A498
[18] = tested on: MCF7
[19] = tested on: 786-0
[20] = tested on: SW-620
[21] = tested on: SK-MEL-5
[22] = tested on: EKVX
[23] = tested on: DU-145
[24] = tested on: NCI/ADR-RES
[25] = tested on: Malme-3M
[26] = tested on: COLO 205
[27] = tested on: OVCAR-3
[28] = tested on: IGROV-1
[29] = tested on: HCC 2998
[30] = tested on: OVCAR-4
[31] = tested on: M14
[32] = tested on: BT-549
[33] = tested on: OVCAR-5
[34] = tested on: CAKI-1
[35] = tested on: CCRF-CEM
[36] = tested on: HOP-92
[37] = tested on: NCI-H226
[38] = tested on: NCI-H23
[39] = tested on: MDA-MB-435
[40] = tested on: UACC-62
[41] = tested on: UO-31
[42] = tested on: RXF 393
[43] = tested on: K562
[44] = tested on: SF-268
[45] = tested on: NCI-H460
[46] = tested on: KM12
[47] = tested on: UACC-257
[48] = tested on: PC-3
[49] = tested on: HCT-15
[50] = tested on: LOX IMVI
[51] = tested on: SF-295
[52] = tested on: HCT-116
[53] = tested on: Hs-578T
[54] = tested on: SF-539
[55] = tested on: HOP-62
[56] = tested on: SR
[57] = tested on: MOLT-4

O=S1(=O)c2cnccc2N=C(NCc2ccccc2)N1c1ccccc1
GI50 [1]: 35.8 µM (inactive)
GI50 [2]: 69.5 µM (inactive)
GI50 [3]: 42.1 µM (inactive)
GI50 [4]: > 100 µM (inactive)
GI50 [5]: 98.2 µM (inactive)
GI50 [6]: 81.1 µM (inactive)
GI50 [7]: > 100 µM (inactive)
GI50 [8]: 71.9 µM (inactive)
GI50 [9]: 20.6 µM (inactive)
GI50 [10]: 41.4 µM (inactive)
GI50 [11]: 78 µM (inactive)
GI50 [12]: > 100 µM (inactive)
GI50 [13]: > 100 µM (inactive)
GI50 [14]: 83.2 µM (inactive)
GI50 [15]: 30.1 µM (inactive)
GI50 [16]: 36.7 µM (inactive)
GI50 [17]: > 100 µM (inactive)
GI50 [18]: 54.5 µM (inactive)
GI50 [19]: > 100 µM (inactive)
GI50 [20]: > 100 µM (inactive)
GI50 [21]: 55.5 µM (inactive)
GI50 [22]: > 100 µM (inactive)
GI50 [23]: 67.1 µM (inactive)
GI50 [24]: 68.1 µM (inactive)
GI50 [25]: > 100 µM (inactive)
GI50 [26]: 61.9 µM (inactive)
GI50 [27]: 45.7 µM (inactive)
GI50 [28]: 55.1 µM (inactive)
GI50 [29]: 67.1 µM (inactive)
GI50 [30]: > 100 µM (inactive)
GI50 [31]: > 100 µM (inactive)
GI50 [32]: > 100 µM (inactive)
GI50 [33]: > 100 µM (inactive)
GI50 [34]: > 100 µM (inactive)
GI50 [35]: 41 µM (inactive)
GI50 [36]: 57.5 µM (inactive)
GI50 [37]: > 100 µM (inactive)
GI50 [38]: 64.3 µM (inactive)
GI50 [39]: 92.3 µM (inactive)
GI50 [40]: 46.7 µM (inactive)
GI50 [41]: > 100 µM (inactive)
GI50 [42]: > 100 µM (inactive)
GI50 [43]: > 100 µM (inactive)
GI50 [44]: > 100 µM (inactive)
GI50 [45]: 49.7 µM (inactive)
GI50 [46]: > 100 µM (inactive)
GI50 [47]: > 100 µM (inactive)
GI50 [48]: 75.3 µM (inactive)
GI50 [49]: 74.5 µM
GI50 [50]: > 100 µM (inactive)
GI50 [51]: 89.1 µM (inactive)
GI50 [52]: 73.8 µM (inactive)
GI50 [53]: 58.3 µM (inactive)
GI50 [54]: > 100 µM (inactive)
GI50 [55]: > 100 µM (inactive)
GI50 [56]: 58.6 µM (inactive)
GI50 [57]: 34.9 µM (inactive)
